# Tests used:
# Format in all cases: in vivo, Xenopus tropicalis
# Xenopus embryos [1] = experiment: Gastrulation scoring (incomplete blastopore closure) in treated or kcnh6-depleted embryos; conditions: kcnh6 depletion, injected at one-cell stage
# Method: All injections of Xenopus embryos were performed at the one-cell stage using a fine glass needle and Picospritzer system. A kcnh6 translation blocking (kcnh6 MO, 5′-[…]-3′, SEQ ID NO:1) and a scrambled morpholino oligonucleotide were obtained from Gene Tools LLC and injected at 10 ng to deplete kcnh6 or as a control, respectively. CRISPR sgRNAs for kcnh6 targeted either exon 3 or exon 4 based on the v7.1 gene model of the X. tropicalis genome (CRex3: 5′-[…]-3′, SEQ ID NO:2 and CRex4: 5′-[…]-3′, SEQ ID NO:3). CRISPR sgRNAs for cacna1c (5′-[…]-3′, SEQ ID NO:4) and cacna1g (5′-[…]-3′, SEQ ID NO:5) were designed from the v7.1 model of the Xenopus tropicalis genome. For F0 CRISPR knockdown, embryos were injected with 1.5 ng Cas9 Protein (PNA-Bio) and 400 pg of targeting sgRNA and raised to desired stages. […] Full length human KCNH6 (NM 030779.3; cloned in pCS107), GCaMP6 (subcloned in pCSDest) and mCherry cDNAs (Addgene #34935; in pCS2+), were used to generate capped mRNAs in vitro by first linearizing with appropriate restriction enzymes and then transcribing with the mMessage machine kit (Ambion). mRNAs were injected at 3 pg (human KCNH6), 150 pg (GCaMP6) and 150 pg (mCherry) per embryo. Embryos were raised at 21° C. to allow time for sufficient expression levels at blastula/gastrula stages.
# (§1) Normal embryonic medium is 1/9× modified Ringer's (MR) containing 11 mM NaCl, 0.2 mM KCl, 0.2 mM CaCl2), 0.1 mM Mg2Cl and 0.55 mM HEPES. To allow Ergtoxin to penetrate the embryos, the present study manually removed the vitelline envelope of stage 8 embryos and incubated embryos in 1/9×MR containing 50 nM Ergtoxin (Alomone STE-450) until stage 12. Embryos were then transferred back into 1/9×MR lacking Ergtoxin to develop until stage 45 in order to score organ situs. Barium chloride was applied into the medium at 20 mM and embryos were thoroughly rinsed in 1/9×MR after each incubation period for further development in Ba2+-free medium. For extracellular K^+ manipulations, the KCl concentration in 1/9×MR was modified from 0.2 mM (normal) to 20 mM (high) or 0 mM (low). The ionophore valinomycin (ACROS) and L-type VGCC blocker Nifedipine (ACROS) were diluted in DMSO as stock solutions and applied to embryos in 1/9×MR at 2 nM and 10 μM respectively. Treatments performed during gastrulation were applied from stage 8 through stage 12, and embryos were then rinsed thoroughly and returned into 1/9×MR. For rapamycin, the present study created a standard stock solution of 50 mg/ml in DMSO. The stock solution was diluted 1:2500 in the appropriate embryonic media (final 20 μg/ml). Embryos were treated at stage 7 and then fixed at stage 11 for in situ hybridization.
# (§2) In experiments where embryos were evaluated for phenotypes and scored (gastrulation, left-right patterning, in situ hybridizations) the present study carried out three to five biological replicates and Fisher's exact test to evaluate statistical significance. The animal cap experiment was performed twice with a total score of four to eight animal caps per experiment. For the calcium transient analyses, data was collected from three to five embryos in each experiment in three independent experiments, and statistical analyses on GCaMP/mCherry fluorescence intensity as well as Ca^2+ transient area were performed using student's t-test. For whole cell electrophysiological recordings, three to five embryos (two cells each) were examined for their membrane potential and statistical significance was tested by student's t-test. Graphs were designed using GraphPad Prism software. Models were created with BioRender.com.
# [2] = tested on: animal pole of stage 10 embryos; experiment: Calcium imaging (GCaMP6/mCherry) of the animal pole; conditions: stage 10, 20 s time lapse
# Method: GCaMP6 and mCherry mRNAs were mixed and injected into embryos at the one-cell stage. Half of these embryos were then injected with kcnh6 MO and the other half with control MO, still at the one-cell stage. Embryos were transferred at stage 10 into the round wells of a press-to-seal silicone isolator (Sigma 53685) mounted between two cover slips in 2% Methylcellulose- 1/9×MR. GcaMP6 and mCherry fluorescence was then captured for 20s (1 frame per second) via time lapse in the whole animal pole of each embryo with a 20× objective of an LSM710 confocal microscope using identical acquisition settings across Control MO and kcnh6 MO embryos. […] However, all embryos did display transient increases in GcaMP6 fluorescence, varying in intensity and spreading to multiple cells. The frames of each recording were sorted to identify the calcium transient peak (in area), and GcAMP6 fluorescence intensity was quantified at peak as a ratio to mCherry in mCherry+ cells. The maximum Ca′ transient area was calculated by demarcating in Fuji the GCaMP6(+) vs GcaMP6(−) area of the animal pole at transient peak. […]
# In experiments where embryos were evaluated for phenotypes and scored (gastrulation, left-right patterning, in situ hybridizations) the present study carried out three to five biological replicates and Fisher's exact test to evaluate statistical significance. […]
# [3] = tested on: animal pole cells (prospective ectoderm); experiment: Intracellular Vm recordings in animal pole cells; conditions: stage 10 (gastrulation onset), animal pole, MO injected embryos
# Excerpt: For recordings, devitellinized, stage 10 kcnh6 or control MO injected embryos were mounted into non-toxic clay with their animal pole exposed and covered with 1/9×MR. To investigate the resting potential, animal pole cells were impaled with a high-impedance (˜70 Me), sharp microelectrode filled with 3 M KCl for intracellular recordings. The recordings were made using an Axon 200B amplifier and digitized using a Digidata 1320 digitizer. Jclamp software for Windows was used in current clamp mode. All electrodes were zeroed just before entry into the cells.
# For the series of intracellular recordings in high K^+ and choline treated embryos, stage 8-9 embryos were impaled similarly with an electrode of […]. These recordings were made using a HEKA EPC10 amplifier. The present study used HEKA PatchMaster v2x67 software for Windows. […]
# In experiments where embryos were evaluated for phenotypes and scored (gastrulation, left-right patterning, in situ hybridizations) the present study carried out three to five biological replicates and Fisher's exact test to evaluate statistical significance. […] For the calcium transient analyses, data was collected from three to five embryos in each experiment in three independent experiments, and statistical analyses on GCaMP/mCherry fluorescence intensity as well as Ca^2+ transient area were performed using student's t-test. […]
# Xenopus embryos [4] = experiment: Organ situs (left-right patterning) scoring in stage 45 tadpoles; conditions: kcnh6 depletion, injected at one-cell stage
# Method: Stage 45 Xenopus embryos were paralyzed with benzocaine or tricaine and scored with a light stereomicroscope. Cardiac looping was determined by position of the outflow tract; D-loop: rightward, L-loop: leftward; A-loop: midline. Normal intestinal looping was scored as counter-clockwise rotation of the gut, while abnormal intestinal looping was scored as completely inverse gut rotation (clockwise) or complete lack of looping (un-looped). While a completely inverted gut rotation is clearly an abnormality of LR patterning, an unlooped gut is less clear so the present study only considered an unlooped gut as abnormal situs when combined with abnormal placement (left-sided or midline) of the gall bladder. To quantify total abnormal organ situs, each tadpole was counted only once, regardless of whether multiple organs were affected.
# as §1, §2
substance,measurement,setting,value
"kcnh6 MO: kcnh6 translation blocking morpholino oligonucleotide, 5′-GGTCCTCGAAGTTTAGGATAAACAT-3′, SEQ ID NO:1 (all phosphorodiamidate morpholino (PMO))",inability to complete gastrulation,Xenopus embryos [1],31±3%
same,"animal pole area simultaneously affected by Ca^2+ transients, average",[2],71±11%
same,animal pole area with simultaneous calcium increases in most embryos,[2],> 90%
same,Vm,[3],−21.8±4.6 mV
same,abnormal organ situs,Xenopus embryos [4],91±7%
